These results are taken from US10874743B2, “IRAK degraders and uses thereof” (Kymera Therapeutics, Inc., priority 2017, dated 2020).

The structures appear in SMILES notation.

The target in experiment [1] is T1, IRAK4 (Homo sapiens, UniProt Q9NWZ3).
T1 sequence (Q9NWZ3 1-460): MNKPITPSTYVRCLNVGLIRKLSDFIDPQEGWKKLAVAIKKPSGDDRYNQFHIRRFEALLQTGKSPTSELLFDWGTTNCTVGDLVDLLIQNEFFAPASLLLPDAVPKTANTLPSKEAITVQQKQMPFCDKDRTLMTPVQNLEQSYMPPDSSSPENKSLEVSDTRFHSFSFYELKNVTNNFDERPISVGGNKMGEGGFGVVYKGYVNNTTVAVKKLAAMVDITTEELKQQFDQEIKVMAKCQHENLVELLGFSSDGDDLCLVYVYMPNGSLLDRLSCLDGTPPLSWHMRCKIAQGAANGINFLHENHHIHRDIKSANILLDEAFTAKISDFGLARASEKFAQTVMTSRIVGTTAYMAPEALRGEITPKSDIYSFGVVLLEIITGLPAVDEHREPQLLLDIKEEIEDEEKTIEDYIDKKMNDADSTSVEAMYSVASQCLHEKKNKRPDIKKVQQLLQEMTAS
The experiment can be described thus: PBMC degradation assay (western blot, % IRAK4 degraded after 4 hours). In kind it is cell-based. The settings on record: human PBMCs. (Immunoblotting shows a protein as a band on a membrane.)

In experiment [2] the target is T1, IRAK4. The experiment can be described thus: OCI-LY-10 degradation assay (western blot, % IRAK4 degraded after 4 hours). In kind it is cell-based. Set-up: endogenous in cells; host or cells: OCI-LY10. The settings on record: OCI-LY10 cells. In short, it runs like this:
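OCI-LY10 cells (RPMI-1640, 20% FBS, 55 μM 2-ME) treated with compound at 0.003-10 μM final for 4 h at 37° C, then lysed in RIPA buffer. IRAK4 level read by fluorescent western blot (20-25 μg protein) and binned as % degraded: A >50%, B >20-50%, C <20%.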

Consider `NC(=O)c1nn(-c2ccc(C(=O)NCCCCCNCCNc3cccc4c3C(=O)N(C3CCC(=O)NC3=O)C4=O)cc2)cc1NC(=O)c1coc(-c2ccnc(NCC(F)(F)F)c2)n1` (stereo not drawn) [I-172, N-[3-carbamoyl-1-[4-[5-[2-[[2-(2,6-dioxo-3-piperidyl)-1,3-dioxo-isoindolin-4-yl]amino]ethylamino]pentylcarbamoyl]phenyl]pyrazol-4-yl]-2-[2-(2,2,2-trifluoroethylamino)-4-pyridyl]oxazole-4-carboxamide], for which the “PBMC % IRAK4 Degradation” value on IRAK4 [1] is “A (>50% degradation)”.

For the compound `NC(=O)c1nn(-c2ccc(C(=O)NCCOCCOCCNc3cccc4c3C(=O)N(C3CCC(=O)NC3=O)C4=O)cc2)cc1NC(=O)c1coc(-c2ccnc(NCC(F)(F)F)c2)n1` (stereo not drawn) [I-127, N-[3-carbamoyl-1-[4-[2-[2-[2-[[2-(2,6-dioxo-3-piperidyl)-1,3-dioxo-isoindolin-4-yl]amino]ethoxy]ethoxy]ethylcarbamoyl]phenyl]pyrazol-4-yl]-2-[2-(2,2,2-trifluoroethylamino)-4-pyridyl]oxazole-4-carboxamide], at IRAK4 [1], the “PBMC % IRAK4 Degradation” value is “A (>50% degradation)”.

`O=C1CCC(N2C(=O)c3cccc(NCCOCCOCCNCc4ccc(-n5cc(NC(=O)c6coc(-c7ccnc(NCC8CC8)c7)n6)c(C(F)F)n5)cc4)c3C2=O)C(=O)N1` (stereo not drawn) [I-210, 2-[2-(Cyclopropylmethylamino)-4-pyridyl]-N-[3-(difluoromethyl)-1-[4-[[2-[2-[2-[[2-(2,6-dioxo-3-piperidyl)-1,3-dioxoisoindolin-4-yl]amino]ethoxy]ethoxy]ethylamino]methyl]phenyl]pyrazol-4-yl]oxazole-4-carboxamide]: the “OCI-LY10 % IRAK4 Degradation (0.01 uM)” value at IRAK4 [2] (4 hours, 0.01 uM compound) was “C (<20% degradation)”. For the same compound, the “OCI-LY10 % IRAK4 Degradation (0.1 uM)” value on IRAK4 [2] (4 hours, 0.1 uM compound) is recorded as “B (>20-50% degradation)”. Further, the “OCI-LY10 % IRAK4 Degradation (1 uM)” value at IRAK4 [2] (4 hours, 1 uM compound) is on record as “A (>50% degradation)”. The “OCI-LY10 % IRAK4 Degradation” value at IRAK4 [2] (IRAK4 degraded after 4 hours, western blot) was “A (>50% degradation)”.
